The record followed here is patent US20020082264A1, “Medicaments for viral diseases” (priority 2000, published 2002).

Structures can show the parent of a compound that is named as a salt.

In the first series the test system is hepatitis B virus. As to the kind of experiment: antiviral action on hepatitis B virus in HepG2.2.15 cells (HBV DNA dot-blot hybridization). Format: cell-based. Conditions: 96 h, 2 x 4 days incubation, intra- or extracellular hepatitis B-specific DNA band reduced by 50% vs untreated sample. The method, then: The antiviral action of the compounds according to the invention on hepatitis B virus was investigated by methods based on those described by M. A. Sells et al., Proc. Natl. Acad. Sci. 84, 1005-1009 (1987) and B. E. Korba et al., Antiviral Research 19, 55-70 (1992).
The antiviral tests were carried out in 96-well microtitre plates. The first vertical row of the plate received only growth medium and HepG2.2.15 cells. It served as virus control.
Stock solutions of the test compounds (50 mM) were initially dissolved in DMSO, and further dilutions were prepared in the HepG2.2.15 growth medium. The compounds according to the invention were usually pipetted in a test concentration of 100 μM (lst test concentration) in each case into the second vertical test row of the microtitre plate and subsequently diluted in twofold steps 2^10 times in growth medium +2% by weight fetal calf serum (volume 25 μl).
Each well of the microtitre plate then contained 225 μl of HepG2.2.15 cell suspension (5×10^4 cells/ml) in growth medium +2% by weight of fetal calf serum. The test mixture was incubated at 37° C. and 5% CO2 (v/v) for 4 days.
The supernatant was then aspirated off and discarded, and the wells received 225 μl of freshly prepared growth medium. The compounds according to the invention were each added anew as 10-fold concentrated solution in a volume of 25 μl. The mixtures were incubated for a further 4 days.
The supematants/cells were then harvested and sucked by means of a vacuum onto 96-well dot-blot chambers covered with a nylon membrane (in accordance with the manufacturer's information).
After the supernatants or lysed cells had been transferred to the nylon membrane of the blot apparatus (see above), the intra- or extracellular supernatants of the HepG2.2.15 cells were denatured (1.5 M NaCl/0.5 N NaOH), neutralized (3 M NaCl/0.5 M Tris HCl, pH 7.5) and washed (2× SSC). The DNA was then baked onto the membrane by incubating the filters at 120° C. for 2-4 hours.
Detection of the viral DNA from the treated HepG2.2.15 cells on the nylon filters was easily carried out with non-radioactive, digoxigenin-labelled hepatitis B-specific DNA probes, each of which was labelled with digoxigenin, purified and employed for the hybridization in accordance with the manufacturer's information.
The prehybridization and hybridization took place in 5× SSC, 1× blocking reagent, 0.1% by weight N-lauroylsarcosine, 0.02% by weight SDS and 100 μg of herring sperm DNA. The prehybridization took place at 60° C. for 30minutes, and the specific hybridization with 20 to 40 ng/ml of the digoxigenized, denatured HBV-specific DNA took place at 60° C. for 14 hours. The filters were then washed.
The immunological detection of the digoxigenin-labelled DNA took place in accordance with the manufacturer's information:
The filters were washed and prehybridized in a blocking reagent (in accordance with the manufacturer's information). Hybridization was then carried out with an anti-DIG antibody coupled to alkaline phosphatase for 30 minutes. After a washing step, the substrate of alkaline phosphatase, CSPD, was added, incubated with the filters for 5 minutes, then packed in plastic film and incubated at 37° C. for a further 15 minutes. The chemiluminescence of the hepatitis B-specific DNA signals was visualized by exposing the filters to an X-ray film (incubation depending on signal strength: 10 minutes to 2 hours).
The half-maximum inhibitory concentration (IC50, 50% inhibitory concentration) was determined as the concentration at which the intra- or extracellular hepatitis B-specific band was reduced by the compound according to the invention by 50% compared with an untreated sample.
In the case of `N#CCCC1C(=O)c2ccc(-c3ccc(F)c(F)c3)cc2OC12CCCC2` (stereo not drawn) [Example 82], the half-inhibitory concentration (IC50) (in general, the midpoint of a concentration-inhibition curve) lay in the range of 2 to 120 nM.

Regarding `N#CCCC1C(=O)c2ccc(-c3ccc(F)c(F)c3)cc2OC12CCC2` (stereo not drawn) [Example 99], the IC50 is 2 to 120 nM.

Compound `N#CCCC1C(=O)c2ccc(-c3cccc(N)c3)cc2OC12CCCCC2` (stereo not drawn) [Example 132, 3-(2-Cyanoethyl)-7-(3-aminophenyl)spiro[2H-1-benzopyran-2,1′-cyclohexan]-4(3H)-one Hydrochloride] came in with an IC50 of 2 to 120 nM.

`N#CCCC1C(=O)c2ccc(-c3cccc([N+](=O)[O-])c3)cc2OC12CCCC2` (stereo not drawn) [Example 116] registered an IC50 of 2 to 120 nM.

As for `Cc1cccc(-c2ccc3c(c2)OC2(CCCCC2)C(CCC#N)C3=O)c1` (stereo not drawn) [Example 76], the IC50 lay in the range of 2 to 120 nM.

`N#CCCC1C(=O)c2ccc(-c3cccc(C#N)c3)cc2OC12CCCC2` (stereo not drawn) [Example 97] yielded an IC50 of 2 to 120 nM.

Test system in another series: not given
Experiment: not given
Conditions: not given
With `N#CCCC1(CCC#N)C(=O)c2ccc(Br)cc2OC12CCCCC2`, the melting point – broadly, the temperature, or range, at which the solid turns liquid – fell in the range of 145 to 149 °C.

For `N#CCCC1C(=O)c2cc(F)c(F)cc2OC12CCCCC2` (stereo not drawn), the melting point stood at 80 °C.

Regarding `N#CCCC1C(=O)c2ccc(-c3ccc(F)cc3)cc2OC12CCCCC2` (stereo not drawn), the melting point lay in the range of 61 to 63 °C.

`O=C(O)CCC1C(=O)c2ccc(-c3ccccc3)cc2OC12CCCCC2` (stereo not drawn) returned a melting point of 196 °C.

On to `N#CCCC1(CCC#N)C(=O)c2ccc(-c3cccnc3)cc2OC12CCCCC2`, for which the melting point is 190 to 195 °C.

With `Cc1cccc(-c2ccc3c(c2)OC2(CCCCC2)C(CCC#N)C3=O)c1` (stereo not drawn) [Example 76], the melting point fell in the range of 86 to 90 °C.
